Like-named read-outs stand apart in the source and are kept apart here.
Tests used:
[1] = target: T1, human m3 receptor subtype (Homo sapiens, UniProt P20309); assay: Agonist-induced hydrolysis of inositol phospholipids (PI hydrolysis) in CHO-K1 cells expressing m3; assay type: cell-based; settings: for Emax: CHO-K1, 0.5 h, read-out: MAXIMUM RESPONSE BY MUSCARINIC AGONISTS, m3 cells; for EC50: CHO-K1 m3 cells, EC50 calculated as 50% of the maximum response of the PI hydrolysis, read-out: POTENCY ON PI HYDROLYSIS, EC 50, m3 cells
T1 construct: expressed in transfected cells
T1 sequence (P20309 whole entry): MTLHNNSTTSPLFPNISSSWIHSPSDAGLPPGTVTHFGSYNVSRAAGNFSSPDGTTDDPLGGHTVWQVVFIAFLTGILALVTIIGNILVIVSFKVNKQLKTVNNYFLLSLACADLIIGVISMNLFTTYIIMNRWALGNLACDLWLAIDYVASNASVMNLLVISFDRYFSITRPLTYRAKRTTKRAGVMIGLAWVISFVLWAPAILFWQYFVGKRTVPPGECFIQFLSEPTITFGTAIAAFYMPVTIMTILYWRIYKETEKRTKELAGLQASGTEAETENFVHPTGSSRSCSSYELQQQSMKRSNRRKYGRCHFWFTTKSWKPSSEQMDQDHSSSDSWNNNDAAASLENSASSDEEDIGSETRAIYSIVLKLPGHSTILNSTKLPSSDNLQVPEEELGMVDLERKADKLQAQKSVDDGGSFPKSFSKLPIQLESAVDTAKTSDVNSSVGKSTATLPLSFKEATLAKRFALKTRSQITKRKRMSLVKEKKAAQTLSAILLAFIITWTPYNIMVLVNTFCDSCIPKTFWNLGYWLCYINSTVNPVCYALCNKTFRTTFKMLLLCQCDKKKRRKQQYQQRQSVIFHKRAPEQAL
Protocol: (§1) Chinese hamster ovary (CHO-K1) cells stably expressing the human m3 or m5 receptor subtype were grown to confluency in DMEM/F12 medium containing 10% fetal calf serum and 1 unit/ml penicillin/streptomycin in a 37° C. incubator. Activity of muscarinic agonists in these cells was determined by measuring agonist induced hydrolysis of inositol phospholipids. Confluent cells plated at 0.1×10^6 cells/well in a 24-well dish were incubated in medium containing 4 μCi/ml myo-[2-^3 H] inositol overnight. This labels the inositol phospholipids in the cells. The next morning, the cells were washed to remove excess medium and incubated for 10 minutes before and 30 minutes after the addition of various muscarinic agonists in assay buffer containing 10 mM LiCl. The hydrolysis of inositol phospholipids generates inositol phosphates which were extracted and separated on dowex-formate columns and radioactivity determined. Radioactivity of the unhydrolyzed inositol phospholipids was also determined and percent hydrolysis calculated as a measure of agonist activity.
(§2) The EC50 was calculated as 50% of the maximum response of the PI hydrolysis

[2] = Test for lowering IOP and miosis; assay type: in vivo; settings: for IOP-lowering: in vivo; for miosis: side effect when tested for lowering IOP
[3] = target: T2, human m5 receptor subtype (Homo sapiens, UniProt P08912); assay: Agonist-induced hydrolysis of inositol phospholipids (PI hydrolysis) in CHO-K1 cells expressing m5; assay type: cell-based; settings: for Emax: CHO-K1, 0.5 h; for EC50: CHO-K1 m5 cells, EC50 calculated as 50% of the maximum response of the PI hydrolysis, read-out: POTENCY ON PI HYDROLYSIS, EC 50, m5 cells; for m3/m5 ratio: ratio of EC50 at m3 to EC50 at m5, 30 min
T2 construct: expressed in transfected cells
T2 sequence (P08912 1-532): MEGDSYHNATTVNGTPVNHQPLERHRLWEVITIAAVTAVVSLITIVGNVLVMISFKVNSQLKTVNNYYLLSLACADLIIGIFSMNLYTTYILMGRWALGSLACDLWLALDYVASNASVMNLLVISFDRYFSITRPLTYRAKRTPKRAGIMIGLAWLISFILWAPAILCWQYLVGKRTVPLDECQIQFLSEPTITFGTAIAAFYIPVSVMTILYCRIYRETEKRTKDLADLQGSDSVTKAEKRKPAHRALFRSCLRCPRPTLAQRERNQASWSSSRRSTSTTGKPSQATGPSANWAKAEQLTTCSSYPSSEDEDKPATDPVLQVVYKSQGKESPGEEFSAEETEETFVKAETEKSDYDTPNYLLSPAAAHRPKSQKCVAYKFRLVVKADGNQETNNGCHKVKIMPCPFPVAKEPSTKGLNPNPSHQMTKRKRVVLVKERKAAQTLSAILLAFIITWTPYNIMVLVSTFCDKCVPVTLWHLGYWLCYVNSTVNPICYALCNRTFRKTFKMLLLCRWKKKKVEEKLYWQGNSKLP
Protocol: as §1, §2

[4] = read-out: MAXIMUM RESPONSE BY MUSCARINIC AGONISTS, m5 cells, read-out: MAXIMUM RESPONSE BY […] AGONISTS, m5 cells

Row | Structure (SMILES) | Emax [1] [%] | EC50 [1] [nM] | IOP-lowering [2] | miosis [2] | Emax [3, 4] [%] | Emax ([3]; read-out: hydrolysis elicited relative to carbachol at the m5 receptor) [%] | EC50 [3] [nM] | m3/m5 ratio [3] | Emax ([3]; read-out: MAXIMUM RESPONSE BY MUSCARINIC AGONISTS, m5 cells) [%]
1 | CC(=O)N(C)C(C)C#CCN1CCCC1 (centres unmarked) [BM-5, N-Methyl-N-(1-methyl-4-pyrrolidino-2-butynyl)acetamide] | 30 ± 3 | 300 | IOP-lowering | miosis | 30 ± 2 | 30 | 60 | 5 | 
2 | CC[C@H]1C(=O)NC[C@@H]1Cc1cncn1C [AGN 190456, 3R, 4R-ethyl-[(1-methyl-1H-imidazol-5-yl)methyl]-2-pyrrolidinone] | 70 ± 7 | 20000 | effective | minimal miosis | 84 ± 11 |  | 5000 | 4 | 
3 | C[N+](C)(C)CCOC(N)=O [CARBACHOL, carbachol] |  |  |  |  | 100 |  |  |  | 
4 | CC1CCC(=O)N1CC#CCN1CCC1 (centres unmarked) [BR-370, N-(4-Azetidinyl-2-butynyl)-5-methyl-2-pyrrolidone] | 96 ± 40 | 800 |  |  |  |  | 700 |  | 110 ± 8
